Read-outs that look alike come from different tables or passages of the source. Blank lines part the entries; values can stand above or below the molecule they belong to.
Assays:
MCR-4 = molecular target: T1, MCR-4 (Homo sapiens, UniProt P32245); experiment: Melanocortin receptor binding assay, competition with 125I-HP 467, HEK 293 cells expressing hMCR-4; conditions: read-out: MC-4 IC50
T1 construct: expressed in transfected cells; host or cells: HEK 293
How it was run: (§1)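 Test compounds compete on intact HEK 293 cells carrying hMCR-1 (2×10^4 per tube) or hMCR-4 (4×10^3 per tube), suspended in PBS, 10% calf serum, 1 mM CaCl2.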

MCR-1 = molecular target: T2, MCR-1 (Homo sapiens, UniProt Q01726); experiment: Melanocortin receptor binding assay, competition with 125I-HP 467, HEK 293 cells expressing hMCR-1; conditions: read-out: MC-1 IC50
T2 construct: expressed in transfected cells; host or cells: HEK 293
How it was run: as §1

[1] = TRG 2408 and TRG 2409 libraries, inhibition of 125I-HP 467 binding
[2] = competition with 125I-HP 467, HEK 293 cells expressing MCR-4
[3] = competition with 125I-HP 467, HEK 293 cells expressing MCR-1
[4] = inhibition of binding of 125I-HP 467, HEK 293 cells expressing MCR-4
[5] = inhibition of binding of 125I-HP 467, HEK 293 cells expressing MCR-1
[6] = TRG 2406 and TRG 2407 libraries, inhibition of binding of 125I-HP 467
[7] = inhibition of binding of 125I-HP 467, HEK 293 cells expressing MCR-4, TRG 2414 library
[8] = inhibition of binding of 125I-HP 467, HEK 293 cells expressing MCR-1, TRG 2414 library

T2 sequence (Q01726 whole entry): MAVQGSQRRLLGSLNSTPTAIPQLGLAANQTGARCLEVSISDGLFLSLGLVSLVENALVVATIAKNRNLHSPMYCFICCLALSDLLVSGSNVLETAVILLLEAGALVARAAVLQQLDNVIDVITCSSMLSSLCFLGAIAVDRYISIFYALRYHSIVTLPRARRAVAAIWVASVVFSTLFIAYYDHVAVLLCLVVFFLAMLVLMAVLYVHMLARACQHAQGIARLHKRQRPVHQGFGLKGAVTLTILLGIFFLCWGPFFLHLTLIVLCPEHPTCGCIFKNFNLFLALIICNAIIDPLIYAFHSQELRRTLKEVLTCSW
T1 sequence (P32245 whole entry): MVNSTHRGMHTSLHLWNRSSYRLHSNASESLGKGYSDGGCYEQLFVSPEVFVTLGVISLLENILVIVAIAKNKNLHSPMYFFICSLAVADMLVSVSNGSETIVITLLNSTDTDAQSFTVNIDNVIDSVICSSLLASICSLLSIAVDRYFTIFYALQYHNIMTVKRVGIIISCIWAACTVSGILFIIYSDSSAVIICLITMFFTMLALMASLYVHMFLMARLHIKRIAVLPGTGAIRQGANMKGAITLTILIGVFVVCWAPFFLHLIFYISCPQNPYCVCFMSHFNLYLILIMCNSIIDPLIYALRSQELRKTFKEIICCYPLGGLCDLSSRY

SMILES: CNC(CN)CCCCN1Cc2ccccc2C(CNC2CCCCC2)C1c1ccc(-c2ccccc2)cc1 (stereo not shown) [TRG 2408-50]
IC50 (MCR-4; [1]): 13300 nM | IC50 (MCR-1; [1]): 1550 nM

SMILES: CCNc1ccc(C2C(CNCCc3ccccc3)c3ccccc3CN2CCCC[C@@H](CN)NCCCCOc2ccccc2)cc1 (stereo partly shown) [2424#11]
IC50 (MCR-4; [4]): 3520 nM | IC50 (MCR-1; [5]): 210 nM

SMILES: CNC(CN)CCCCN1Cc2ccccc2C(CO)C1c1ccc(Cl)cc1Cl (stereo not shown) [TRG 2407-40]
IC50 (MCR-4; [6]): 4940 nM | IC50 (MCR-1; [6]): 4740 nM

SMILES: COc1ccc(CNC(CN)CCCCN2Cc3ccccc3C(CNCCc3ccc(Cl)cc3)C2c2cc(C(F)(F)F)cc(C(F)(F)F)c2)cc1 (stereo not shown) [TRG 2421-34]
IC50 (MCR-4; [4]): 2640 nM | IC50 (MCR-1; [5]): 4980 nM

SMILES: CCOc1ccc(CCNCC2c3ccccc3CN(CCCCC(CN)NCc3ccccc3)C2c2cccc(C(F)(F)F)c2)cc1 (stereo not shown) [TRG 2421-45]
IC50 (MCR-4; [4]): 2730 nM | IC50 (MCR-1; [5]): 980 nM

SMILES: COc1ccc(CNC(CN)CCCCN2Cc3ccccc3C(CNCCc3ccc(O)cc3)C2c2cc(C(F)(F)F)cc(C(F)(F)F)c2)cc1 (stereo not shown) [TRG 2421-9]
IC50 (MCR-4; [4]): 1750 nM | IC50 (MCR-1; [5]): 1500 nM

SMILES: CCCCNc1ccc(C2C(CNC3CCCCC3)c3ccccc3CN2CCCC(CN)NCCc2ccc(Br)cc2)cc1 (stereo not shown) [TRG 2411-208]
IC50 (MCR-4; [4]): 860 nM | IC50 (MCR-1; [5]): 470 nM

SMILES: CNC(CN)CCCCN1Cc2ccccc2C(CNC2CCCCC2)C1c1ccc(NCc2ccccc2)cc1 (stereo not shown) [TRG 2409-13]
IC50 (MCR-4; [2]): 17400 nM | IC50 (MCR-1; [3]): 1150 nM

SMILES: NCC(N)CCCCN1Cc2ccccc2C(CNC2CCCCC2)C1c1ccc(Oc2ccccc2)cc1 (stereo not shown) [TRG 2414-157]
IC50 (MCR-4; [7]): 4110 nM | IC50 (MCR-1; [8]): 1120 nM

SMILES: NCC(N)CCCCN1Cc2ccccc2C(CNCCc2cccc(Cl)c2)C1c1ccc(Cl)cc1Cl (stereo not shown) [TRG 2414-13]
IC50 (MCR-4; [7]): 1180 nM | IC50 (MCR-1; [8]): 2180 nM

SMILES: CCNc1ccc(C2C(CNC3CCCCC3)c3ccccc3CN2CCCC(CN)NCC)cc1 (stereo not shown) [TRG 2411-164]
IC50 (MCR-4; [4]): 4020 nM | IC50 (MCR-1; [5]): 180 nM

SMILES: CNC(CN)CCCCN1Cc2ccccc2C(CNC2CCCCC2)C1c1ccc(NCC(C)C)cc1 (stereo not shown) [TRG 2409-16]
IC50 (MCR-4; [2]): 21000 nM | IC50 (MCR-1; [3]): 950 nM

SMILES: CNCCNC(CN)CCN1Cc2ccccc2C(CNC2CCCCC2)C1c1ccc(Cl)cc1Cl (stereo not shown) [TRG 2408-104]
IC50 (MCR-4; [1]): 9060 nM | IC50 (MCR-1; [1]): 5650 nM

SMILES: CCNc1ccc(C2C(CNCCc3ccccc3)c3ccccc3CN2CCCC(CN)NCCOCCNCCc2ccccc2)cc1 (stereo not shown) [TRG 2420-12]
IC50 (MCR-4; [4]): 1530 nM | IC50 (MCR-1; [5]): 79 nM

SMILES: CCOc1ccc(CCNCC2c3ccccc3CN(CCCCC(CN)NCc3ccc(-c4ccccc4)cc3)C2c2cc(C(F)(F)F)cc(C(F)(F)F)c2)cc1 (stereo not shown) [TRG 2421-25]
IC50 (MCR-4; [4]): 10900 nM | IC50 (MCR-1; [5]): 10000 nM

Next, values leading:

IC50 (MCR-4; [2]): 1330 nM | IC50 (MCR-1; [3]): 890 nM
SMILES: CCNc1ccc(C2C(CNCCc3ccccc3)c3ccccc3CN2CCCCC(CN)NCCc2ccc3ccccc3c2)cc1 (stereo not shown) [TRG 2411-46]

IC50 (MCR-4; TRG 2414 library, inhibition of binding of 125I-HP 467, HEK 293 cells expressing MCR-4): 8790 nM | IC50 (MCR-1; TRG 2414 library, inhibition of binding of 125I-HP 467, HEK 293 cells expressing MCR-1): 17700 nM
SMILES: COc1ccc(CCNCC2c3ccccc3CN(CCCCC(CN)NCC(C)c3ccc(CC(C)C)cc3)C2c2ccccc2Br)cc1 (stereo not shown) [Cmpd 228]

IC50 (MCR-4; [2]): 760 nM | IC50 (MCR-1; [3]): 220 nM
SMILES: CCCCNc1ccc(C2C(CNCCc3ccccc3)c3ccccc3CN2CCCCC(CN)NCCC2CCCCC2)cc1 (stereo not shown) [TRG 2411-84]

IC50 (MCR-4; [4]): 6410 nM | IC50 (MCR-1; [5]): 82 nM
SMILES: CCNc1ccc(C2C(CN)c3ccccc3CN2CCCC(CN)NCCCCNCc2ccccc2)cc1 (stereo not shown) [TRG 2419-6]

IC50 (MCR-4; [7]): 14700 nM | IC50 (MCR-1; [8]): 1810 nM
SMILES: NCC(CCCCN1Cc2ccccc2C(CNCc2ccccc2)C1c1ccc(Oc2ccccc2)cc1)NCc1ccccc1 (stereo not shown) [TRG 2414-151]

IC50 (MCR-4; [7]): 3450 nM | IC50 (MCR-1; [8]): 6720 nM
SMILES: COc1cccc(CNCC2c3ccccc3CN(CCCCC(CN)NCCc3ccccc3)C2c2cc(C(F)(F)F)cc(C(F)(F)F)c2)c1 (stereo not shown) [TRG 2414-58]

IC50 (MCR-4; [4]): 1060 nM | IC50 (MCR-1; [5]): 160 nM
SMILES: CCCCOc1ccc(C2C(CNCCc3ccccc3)c3ccccc3CN2CCCC(CN)NC)cc1 (stereo not shown) [TRG 2412-25]

IC50 (MCR-4; [7]): 7340 nM | IC50 (MCR-1; [8]): 1770 nM
SMILES: CCCOc1ccc(C2C(CNCCc3ccccc3OC)c3ccccc3CN2CCCCC(CN)NCCc2ccccc2)cc1 (stereo not shown) [TRG 2414-170]

IC50 (MCR-4; [4]): 590 nM | IC50 (MCR-1; [5]): 80 nM
SMILES: CCCCNC(CN)CCCN1Cc2ccccc2C(CNCCc2ccccc2)C1c1ccc(NCC)cc1 (stereo not shown) [TRG 2411-153]

IC50 (MCR-4; [7]): 7030 nM | IC50 (MCR-1; [8]): 2160 nM
SMILES: CCCOc1ccc(C2C(CNCc3ccccc3OCC)c3ccccc3CN2CCCCC(CN)NCc2ccccc2)cc1 (stereo not shown) [TRG 2414-167]

IC50 (MCR-4; [4]): 210 nM | IC50 (MCR-1; [5]): 190 nM
SMILES: CCCCNc1ccc(C2C(CNCCc3ccccc3)c3ccccc3CN2CCCC(CN)NCC)cc1 (stereo not shown) [TRG 2411-190]

Source: patent publication US6608082B1, “Treatment of erectile dysfunction using isoquinoline compound melanocortin receptor ligands” (Lion Bioscience AG, priority 1998, dated 2003)
